In patent US11718622B2, “Heterocyclic adenosine receptor antagonists” (Exelixis, Inc., priority 2020, dated 2023):

How the values were obtained:
[1] = biological target: Adenosine A2a (ADORA2A) receptor (Homo sapiens (Human), UniProt P29274); assay: ADORA2A Receptor Binding Assay; details: radioligand binding, membrane stock
Outline: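 Test compounds incubated with A2a receptor membranes and a ³H-labelled radioligand for 2 hours at room temperature, then filtered through PEI-presoaked GF/C plates and washed. Filter-bound ³H counted by scintillation; % inhibition calculated from background-subtracted signal relative to high control.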

[2] = biological target: Adenosine A2B (ADORA2B) receptor (Homo sapiens (Human), UniProt P29275); assay: ADORA2B Receptor Binding Assay; details: radioligand binding, membrane stock
Chain of Adenosine A2B (ADORA2B) receptor (P29275 whole entry): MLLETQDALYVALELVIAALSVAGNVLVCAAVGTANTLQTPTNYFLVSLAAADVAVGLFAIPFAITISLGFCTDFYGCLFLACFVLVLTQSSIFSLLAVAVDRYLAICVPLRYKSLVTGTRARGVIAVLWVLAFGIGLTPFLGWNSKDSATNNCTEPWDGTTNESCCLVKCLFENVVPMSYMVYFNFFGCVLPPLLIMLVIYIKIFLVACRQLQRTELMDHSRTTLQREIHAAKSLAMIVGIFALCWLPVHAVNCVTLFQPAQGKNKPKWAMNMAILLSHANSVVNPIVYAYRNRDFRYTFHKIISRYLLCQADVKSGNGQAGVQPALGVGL
Outline: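 Radioligand competition binding on human A2B receptor membranes, 1 h at room temperature, then filtration through BSA-presoaked GF/C filters and ³H counting by scintillation. Inhibition expressed as % of high control after background subtraction.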

Chain of Adenosine A2a (ADORA2A) receptor (P29274 whole entry): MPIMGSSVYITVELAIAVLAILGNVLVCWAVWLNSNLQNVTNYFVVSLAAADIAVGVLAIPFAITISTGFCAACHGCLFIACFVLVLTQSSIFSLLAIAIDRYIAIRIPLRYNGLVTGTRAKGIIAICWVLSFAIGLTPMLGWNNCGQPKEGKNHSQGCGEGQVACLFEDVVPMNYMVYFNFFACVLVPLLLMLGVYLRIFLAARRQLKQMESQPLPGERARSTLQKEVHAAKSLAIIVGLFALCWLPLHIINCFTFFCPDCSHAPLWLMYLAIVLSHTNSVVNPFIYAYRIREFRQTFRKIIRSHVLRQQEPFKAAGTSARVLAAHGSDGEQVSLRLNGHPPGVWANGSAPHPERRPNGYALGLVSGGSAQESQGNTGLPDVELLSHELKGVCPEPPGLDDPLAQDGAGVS

SMILES | IC50 [1] [nM] | IC50 [2] [nM]
CC(=O)Nc1cn2nc(C)nc2c(-c2ccco2)n1 [Compound 179, N-[8-(furan-2-yl)-2-methyl-[1,2,4]triazolo[1,5-a]pyrazin-6-yl]acetamide] | < 10 | < 10
Cc1ccc(-c2nc(N)cn3ncnc23)o1 [Compound 166, 8-(5-methylfuran-2-yl)-[1,2,4]triazolo[1,5-a]pyrazin-6-amine] | 100 to 1000 | 100 to 1000
Cc1nc2c(-c3ccc(F)cc3)nc(N)c(Cl)n2n1 [Compound 170, 5-chloro-8-(4-fluorophenyl)-2-methyl-[1,2,4]triazolo[1,5-a]pyrazin-6-amine] | < 10 | 10 to 100
Cc1nc2c(Cl)c(N)nc(-c3ccc(C)s3)n2n1 [Compound 40, 8-chloro-2-methyl-5-(5-methylthiophen-2-yl)-[1,2,4]triazolo[1,5-c]pyrimidin-7-amine] | < 10 | < 10
Cc1ccc(-c2nc(NC(=O)C3CC3)cc3nc(C4CCC4)nn23)o1 [Compound 64, N-[2-cyclobutyl-5-(5-methylfuran-2-yl)-[1,2,4]triazolo[1,5-c]pyrimidin-7-yl]cyclopropanecarboxamide] | < 10 | 10 to 100
Cc1ccc(-c2nc3c(c4nc(C(C)C)nn24)C(C)(C)CN3)o1 [Compound 36, 12,12-dimethyl-7-(5-methylfuran-2-yl)-4-propan-2-yl-3,5,6,8,10-pentazatricyclo[7.3.0.0^2,6]dodeca-1(9),2,4,7-tetraene] | 10 to 100 | 100 to 1000
CCC(=O)Nc1cc2nc(C)nn2c(-c2ccc(C)o2)n1 [Compound 5, N-[2-methyl-5-(5-methylfuran-2-yl)-[1,2,4]triazolo[1,5-c]pyrimidin-7-yl]propanamide] | < 10 | 10 to 100
CNc1nc(-c2ccc(C)o2)n2nc(C)nc2c1Cl [Compound 23, 8-chloro-N,2-dimethyl-5-(5-methylfuran-2-yl)-[1,2,4]triazolo[1,5-c]pyrimidin-7-amine] | 100 to 1000 | > 1000
Cc1nc2c(C(N)=O)c(N)nc(-c3ccc(C)o3)n2n1 [Compound 32, 7-amino-2-methyl-5-(5-methylfuran-2-yl)-[1,2,4]triazolo[1,5-c]pyrimidine-8-carboxamide] | 100 to 1000 | 100 to 1000
Cc1nc2c3cccnc3nc(-c3ccc(C)o3)n2n1 [Compound 136, 4-methyl-7-(5-methylfuran-2-yl)-3,5,6,8,10-pentazatricyclo[7.4.0.0^2,6]trideca-1(9),2,4,7,10,12-hexaene] | > 1000 | > 1000
CCc1nc2cc(NC(=O)C3CC3)nc(-c3ccc(C)o3)n2n1 [Compound 8, N-[2-ethyl-5-(5-methylfuran-2-yl)-[1,2,4]triazolo[1,5-c]pyrimidin-7-yl]cyclopropanecarboxamide] | < 10 | 10 to 100
CC(=O)Nc1cc2nc(C3CNC3)nn2c(-c2ccco2)n1 [Compound 122, N-[2-(azetidin-3-yl)-5-(furan-2-yl)-[1,2,4]triazolo[1,5-c]pyrimidin-7-yl]acetamide] | 100 to 1000 | > 1000
Cc1nc2c(Br)c(N)nc(-c3ccccc3)n2n1 [Compound 89, 8-bromo-2-methyl-5-phenyl-[1,2,4]triazolo[1,5-c]pyrimidin-7-amine] | 10 to 100 | 10 to 100
Cc1ccc(-c2nc3[nH]ncc3c3nc(C(F)(F)F)nn23)o1 [Compound 153, 7-(5-methylfuran-2-yl)-4-(trifluoromethyl)-3,5,6,8,10,11-hexazatricyclo[7.3.0.0^2,6]dodeca-1(9),2,4,7,11-pentaene] | < 10 | 10 to 100
Cc1nc2cc(N)nc(-c3ccc(S(=O)(=O)N(C)C)cc3)n2n1 [Compound 119, 4-(7-amino-2-methyl-[1,2,4]triazolo[1,5-c]pyrimidin-5-yl)-N,N-dimethylbenzenesulfonamide] | > 1000 | > 1000
Cc1cc2c(nc(-c3ccc(C)o3)n3nc(C(F)(F)F)nc23)[nH]1 [Compound 88, 11-methyl-7-(5-methylfuran-2-yl)-4-(trifluoromethyl)-3,5,6,8,10-pentazatricyclo[7.3.0.0^2,6]dodeca-1(9),2,4,7,11-pentaene] | < 10 | < 10
Cc1ccc(-c2nc3[nH]ncc3c3nc(C(C)C)nn23)o1 [Compound 121, 7-(5-methylfuran-2-yl)-4-propan-2-yl-3,5,6,8,10,11-hexazatricyclo[7.3.0.0^2,6]dodeca-1(9),2,4,7,11-pentaene] | < 10 | 10 to 100
Cc1nc2c3nc(C(F)(F)F)[nH]c3nc(-c3ccc(C)o3)n2n1 [Compound 161, 8-methyl-5-(5-methylfuran-2-yl)-2-(trifluoromethyl)-3H-[1,2,4]triazolo[5,1-f]purine] | 100 to 1000 | 100 to 1000

SMILES | IC50 [1] [nM] | IC50 [2] [nM]
Cc1nc2c3cc(C(C)(C)O)[nH]c3nc(-c3ccc(C)o3)n2n1 [Compound 134, 2-[4-methyl-7-(5-methylfuran-2-yl)-3,5,6,8,10-pentazatricyclo[7.3.0.0^2,6]dodeca-1(9),2,4,7,11-pentaen-11-yl]propan-2-ol] | < 10 | < 10
CC(C)c1cn2c(Cl)c(N)nc(-c3ccccc3)c2n1 [Compound 213, 5-chloro-8-phenyl-2-propan-2-ylimidazo[1,2-a]pyrazin-6-amine] | 10 to 100 | 100 to 1000
Cc1nc2cc(NC(=O)C3CNC3)nc(-c3ccc(C)o3)n2n1 [Compound 14, N-[2-methyl-5-(5-methylfuran-2-yl)-[1,2,4]triazolo[1,5-c]pyrimidin-7-yl]azetidine-3-carboxamide] | < 10 | 10 to 100
Cc1ccc(-c2nc(NC(=O)C3CC3)cn3nc(C(C)C)nc23)o1 [Compound 173, N-[8-(5-methylfuran-2-yl)-2-propan-2-yl-[1,2,4]triazolo[1,5-a]pyrazin-6-yl]cyclopropanecarboxamide] | < 10 | < 10
CC(C)c1nc2cc(NC(=O)C3CC3)nc(-c3ccco3)n2n1 [Compound 58, N-[5-(furan-2-yl)-2-propan-2-yl-[1,2,4]triazolo[1,5-c]pyrimidin-7-yl]cyclopropanecarboxamide] | < 10 | < 10
Cc1ccc(-c2nc(NC(=O)C3CC3)cn3cc(CF)nc23)o1 [Compound 210, N-[2-(fluoromethyl)-8-(5-methylfuran-2-yl)imidazo[1,2-a]pyrazin-6-yl]cyclopropanecarboxamide] | < 10 | 10 to 100
Cc1nc2cc(NC(=O)OC(C)(C)C)nc(-c3ccc(S(=O)(=O)O)cc3)n2n1 [Compound 124, 4-[2-methyl-7-[(2-methylpropan-2-yl)oxycarbonylamino]-[1,2,4]triazolo[1,5-c]pyrimidin-5-yl]benzenesulfonic acid] | 100 to 1000 | > 1000
Cc1nc2c(Cl)c(N)nc(-c3ccccc3)n2n1 [Compound 33, 8-chloro-2-methyl-5-phenyl-[1,2,4]triazolo[1,5-c]pyrimidin-7-amine] | < 10 | 10 to 100
Cc1ccc(-c2nc3c(c4nc(C(C)C)nn24)CC(=O)N3)o1 [Compound 98, 7-(5-methylfuran-2-yl)-4-propan-2-yl-3,5,6,8,10-pentazatricyclo[7.3.0.0^2,6]dodeca-1(9),2,4,7-tetraen-11-one] | 10 to 100 | 100 to 1000
CC(=O)Nc1cc2nc(C(F)F)nn2c(-c2ccco2)n1 [Compound 133, N-[2-(difluoromethyl)-5-(furan-2-yl)-[1,2,4]triazolo[1,5-c]pyrimidin-7-yl]acetamide] | < 10 | < 10
Cc1nc2cc(NC(=O)NCCN3CCOCC3)nc(-c3ccco3)n2n1 [Compound 159, 1-[5-(furan-2-yl)-2-methyl-[1,2,4]triazolo[1,5-c]pyrimidin-7-yl]-3-(2-morpholin-4-ylethyl)urea] | < 10 | 10 to 100
Cc1nc2c3cc(C)[nH]c3nc(-c3ccc(C)o3)n2n1 [Compound 45, 4,11-dimethyl-7-(5-methylfuran-2-yl)-3,5,6,8,10-pentazatricyclo[7.3.0.0^2,6]dodeca-1(9),2,4,7,11-pentaene] | < 10 | < 10
CC(=O)Nc1cc2nc(C3CCC3)nn2c(-c2ccc(C)o2)n1 [Compound 63, N-[2-cyclobutyl-5-(5-methylfuran-2-yl)-[1,2,4]triazolo[1,5-c]pyrimidin-7-yl]acetamide] | < 10 | 10 to 100
COC(=O)Nc1cn2cc(C)nc2c(-c2ccco2)n1 [Compound 218, methyl N-[8-(furan-2-yl)-2-methylimidazo[1,2-a]pyrazin-6-yl]carbamate] | 10 to 100 | 100 to 1000
Cc1nc2c(Br)c(N)nc(-c3ccc(C)o3)n2n1 [Compound 16, 8-bromo-2-methyl-5-(5-methylfuran-2-yl)-[1,2,4]triazolo[1,5-c]pyrimidin-7-amine] | < 10 | < 10
CC(=O)Nc1cc2nc(C)nn2c(-c2cnc(C)o2)n1 [Compound 44, N-[2-methyl-5-(2-methyl-1,3-oxazol-5-yl)-[1,2,4]triazolo[1,5-c]pyrimidin-7-yl]acetamide] | 10 to 100 | 10 to 100
CC(=O)Nc1cc2nc(C)nn2c(-c2ccc(S(=O)(=O)N(C)C)cc2)n1 [Compound 117, N-[5-[4-(dimethylsulfamoyl)phenyl]-2-methyl-[1,2,4]triazolo[1,5-c]pyrimidin-7-yl]acetamide] | > 1000 | > 1000
Cc1nc2cc(NC(=O)CF)nc(-c3ccco3)n2n1 [Compound 145, 2-fluoro-N-[5-(furan-2-yl)-2-methyl-[1,2,4]triazolo[1,5-c]pyrimidin-7-yl]acetamide] | 10 to 100 | 10 to 100
